Laboratory results published in US20220110889A1, “R-KETAMINE AND DERIVATIVE THEREOF AS PROPHYLACTIC OR THERAPEUTIC AGENT FOR NEURODEV[…]” (National University Corporation Chiba University, priority 2018, published 2022).
Entries after “also recorded” stand apart in the source; their conditions may differ.

What was measured:
[1] = test system: mice treated with PCP serving as animal models of schizophrenia; test: Novel object recognition test (NORT) in mice repeatedly administered with PCP (animal model of schizophrenia); assay type: in vivo; conditions: for cognitive function in NORT (ratio of time to find the novel object relative to time to find the two objects): male ICR mice, PCP 10 mg/kg s.c. for ten days, test drug 10 mg/kg intraperitoneally on days 15, 18, 22, 25, vs PCP+physiological saline
Method: The creation of model animals of a cognitive impairment of schizophrenia and drug administration were specifically carried out as described below (FIG. 1). For the mice, male ICR mice (8 weeks old, Japan SLC Inc., Hamamatsu, Japan) were purchased. The mice were allowed to freely ingest water and feed. On the first day of testing, physiological saline (10 mL/kg bodyweight) or PCP (10 mg/kg bodyweight) was subcutaneously administered once a day for ten days (from the first day of testing to the fifth day of testing and from the eighth day of testing to the twelfth day of testing: no administration on the sixth and seventh days of testing). On the fifteenth day of testing, the eighteenth day of testing, the twenty-second day of testing, and the twenty-fifth day of testing, R-ketamine (10 mg/kg bodyweight) or a medium (10 mL/kg of physiological saline) was intraperitoneally administered. […] The novel object recognition test (NORT: novel object recognition test) is a system used to evaluate cognitive functions. The NORT was carried out according to a previous report (Hashimoto et al. Eur. J. Pharmacol. 2005; 519 (1-2): 114-117). From the twenty-sixth day to the twenty-eighth day of testing, acclimation to a NORT apparatus (50.8×50.8×25.4 cm) was performed for 10 minutes per day. On the twenty-ninth day of testing, two objects of different shapes and colors were placed 35.5 cm apart in the NORT apparatus, and an amount of time to find each object was measured. A training session (10 minutes) was carried out, and on the following day, the thirtieth day of testing, a test session (5 minutes) was carried out (FIG. 1). In the test session on the following day, one object was replaced with another, new object (novel object). An amount of time to find the two objects was measured, and in the test session on the second day, a ratio of an amount of time to find the novel object relative to the amount of time to find the two objects was calculated. On the day following the end of behavior testing, a brain region (frontal cortex, hippocampus) of the mice was extracted, and the brain tissue was stored in a freezer. Brain-derived neurotrophic factor (BDNF: brain-derived neurotrophic factor); TrkB, which is a BDNF receptor; and phosphorylated TrkB in the brain tissue were quantified by western blotting (FIG. 3).
The effect of S-ketamine was examined according to the method above. On the first day of testing, physiological saline (10 mL/kg bodyweight) or PCP (10 mg/kg bodyweight) was subcutaneously administered once a day for ten days (from the first day of testing to the fifth day of testing and from the eighth day of testing to the twelfth day of testing: no administration on the sixth and seventh days of testing). […]

BDNF-TrkB system = test: Western blotting of BDNF, TrkB and phosphorylated TrkB in frontal cortex and hippocampus of PCP-treated mice; assay type: in vivo; conditions: R-ketamine 10 mg/kg i.p., brain extracted after behavior testing
Method: The creation of model animals of a cognitive impairment of schizophrenia and drug administration were specifically carried out as described below (FIG. 1). For the mice, male ICR mice (8 weeks old, Japan SLC Inc., Hamamatsu, Japan) were purchased. The mice were allowed to freely ingest water and feed. On the first day of testing, physiological saline (10 mL/kg bodyweight) or PCP (10 mg/kg bodyweight) was subcutaneously administered once a day for ten days (from the first day of testing to the fifth day of testing and from the eighth day of testing to the twelfth day of testing: no administration on the sixth and seventh days of testing). On the fifteenth day of testing, the eighteenth day of testing, the twenty-second day of testing, and the twenty-fifth day of testing, R-ketamine (10 mg/kg bodyweight) or a medium (10 mL/kg of physiological saline) was intraperitoneally administered. […] On the day following the end of behavior testing, a brain region (frontal cortex, hippocampus) of the mice was extracted, and the brain tissue was stored in a freezer. Brain-derived neurotrophic factor (BDNF: brain-derived neurotrophic factor); TrkB, which is a BDNF receptor; and phosphorylated TrkB in the brain tissue were quantified by western blotting (FIG. 3). […]

[2] = test system: baby mice (male) born from pregnant mice administered with Poly (I:C); test: Novel object recognition test in offspring of pregnant mice administered with Poly (I:C) (maternal immune activation model); assay type: in vivo; conditions: male offspring of Poly (I:C) 5 mg/kg dams; R-ketamine 10 mg/kg i.p. twice a week, four weeks (weeks 4 to 8 after birth); NORT at 10 weeks old or thereafter
Method: The creation of model animals of a neurodevelopmental disorder such as schizophrenia or autism spectrum disorder (models of maternal immune activation) and drug administration were specifically carried out as described below (FIG. 5). For the mice, pregnant ddY mice (8 to 10 weeks old, Japan SLC Inc., Hamamatsu, Japan) were purchased. The mice were allowed to freely ingest water and feed. Physiological saline (5 mL/kg bodyweight) or Poly (I:C) (Sigma-Aldrich: 5 mg/kg bodyweight) was intraperitoneally administered for six days, from the twelfth day of pregnancy to the seventeenth day of pregnancy, according to previous reports (Han M, et al. Sci Rep 2016; 6:36087. Matsuura A, et al. Sci Rep 2018; 8: 2158. Ma M, et al. Proc Natl Acad Sci USA 2019; 116: 7083-7088). After birth, the mice were raised normally, and at 3 weeks old, only the male mice were weaned and raised. R-ketamine (10 mg/kg bodyweight) or a medium (10 mL/kg of physiological saline) was intraperitoneally administered twice a week for four weeks, from the fourth week after birth to the eighth week after birth. […] From 8 weeks old, these were raised normally. The above NORT was carried out at 10 weeks old or thereafter.
Statistical analysis was carried out by performing a one-way analysis of variance (one-way ANOVA) and subsequently performing Fisher's LSD (Fisher's LSD). […]

[3] = animal testing, non-patent literature 12 to 14; cited from earlier work
NMDA receptors = conditions: non-patent literature 11; cited from earlier work

Compound | effect of ANA-12 pretreatment on the therapeutic effect of R-ketamine in NORT ([1]; PCP-treated mice, ANA-12 0.5 mg/kg i.p. 30 minutes before R-ketamine 10 mg/kg i.p.) | cognitive function in NORT, TrkB role study ([1]; PCP-treated mice, solvent 30 minutes before R-ketamine 10 mg/kg i.p. on days 15, 18, 22, 25) | cognitive function in NORT (ratio of time to find the novel object relative to time to find the two objects) [1] | BDNF protein expression in the frontal cortex and the hippocampus (BDNF-TrkB system) | ratio p-TrkB/TrkB in the frontal cortex and the hippocampus (BDNF-TrkB system) | cognitive impairment at maturity in NORT [2] | side effects (such as drug dependency and an action of inducing a mental illness) compared to S-ketamine [3] | affinity toward NMDA receptors relative to R-ketamine (NMDA receptors)
O=C(Nc1ccccc1C(=O)NC1CCCCNC1=O)c1cc2ccccc2s1 (stereo not drawn) [ANA-12, reference compound] | suppressed the therapeutic effect of R-ketamine | – | – | – | – | – | – | –
CN[C@@]1(c2ccccc2Cl)CCCCC1=O [R-ketamine] | – | significantly improved the reduced cognitive function due to PCP administration | significantly improved the reduced cognitive function due to PCP administration; also recorded: exhibits a therapeutic effect | significantly improved | significantly improved | suppressed a cognitive impairment at maturity | fewer side effects | –
CN[C@]1(c2ccccc2Cl)CCCCC1=O [S-ketamine, reference compound] | – | – | did not improve the reduced cognitive function due to PCP administration; also recorded: exhibited no therapeutic effect | – | – | – | – | stronger affinity toward NMDA receptors; also recorded: about four times higher than R-ketamine
